From article PMC5841303, “In silico screening for human norovirus antivirals reveals a novel non-nucleoside inhibitor of the viral polymerase” (Scientific Reports, 2018)

What was measured:
[1] = biological target: human norovirus Sydney 2012 RdRp (Norovirus GII.4 (Norwalk virus, human norovirus), UniProt K4L8Z7); assay: Fluorescent de novo RdRp activity assay (PicoGreen, poly(C) template); format: biochemical
Experimental: The 62 compounds identified in silico were screened for inhibition of norovirus RdRp activity using an in vitro fluorescent, de novo RdRp assay. Compounds were tested at fixed concentrations of 10 µM and 100 µM, and compared to mock treated samples containing the vehicle only (0.5% DMSO [vol/vol]) (Fig. 4A,B). […] For certain compounds, significant insolubility was observed, coupled with either inherent fluorescence quenching (positive y-axis values on Fig. 4A,B) or enhancement of the fluorescence signal (negative y-axis values).
The newly synthesised compounds, including the re-prepared hit 13 and some synthesis intermediates (Table 1), were initially evaluated on norovirus Sydney 2012 RdRp activity in vitro using a quantitative fluorescent assay. Compounds were tested at a fixed concentration of 10 μM and compared to the relative activity of mock treated samples.
Recombinant calicivirus RdRps (GenBank accession numbers) norovirus GII.Pe/GII.4 Sydney 2012 (KT239579), MNV GV CW1 (DQ285629), RHDV Czech V351 (KF594473.1), and SaV GI.1 Mc114 (AY237422) were expressed and purified as described previously[60],[61]. RdRp resistance mutants were generated using the QuikChange site-directed mutagenesis kit (Agilent Technologies, Santa Clara, CA, USA) and confirmed by Sanger sequencing.
Fluorescent RdRp activity assays were carried out as previously described[14],[62]. Briefly, RdRp activity was quantified by monitoring the formation of double-stranded RNA (dsRNA) from a single stranded homopolymeric template, poly(C) (Sigma Aldrich, St Louis, MO, USA), using the fluorescent dye PicoGreen (Life Technologies, Carlsbad, CA, USA). RdRp assays were performed in 384-well plates, and each reaction mixture contained 400 ng enzyme, 45 µM GTP, 10 ng/µL poly(C) RNA, 2.5 mM MnCl2, 5 mM dithiothreitol, (DTT), 0.01% bovine serum albumin (BSA), and 0.005% Tween 20 in 20 mM Tris-HCl, pH 7.5, with a final reaction volume of 25 µL. The previous published norovirus NNI NIC02 was used as a positive control. RdRps were incubated for 10 mins at 30 °C in the presence of the test compounds or the compound vehicle DMSO (0.5% vol/vol) before addition into the reaction mixture, which was then allowed to run 15 min at 30 °C then terminated with 10 mM EDTA, followed by PicoGreen staining and dsRNA quantitation. GraphPad Prism V6.05 (La Jolla, CA, USA) was used to plot the IC50 values. In cases where fluorescent enhancement was recorded for a compound instead of inhibition, a secondary gel-based polymerase activity assay was used as a counter-screen as described below, to exclude the possibility of RdRp activity enhancement (Supplementary Fig. S1). Primed elongation activity was examined in a gel-based assay as previously described[16],[63] using the RNA template (PE44-NoV, Fig. 4D). Gels were imaged using BioRad (Hercules, CA, U.SA) Geldoc Universal Hood II, running BioRad Image Lab software, V4.1, build 16. Antagonism was calculated using Compusyn software V1.0[59]. 54 and PPNDS (4:1 ratio) were tested alone and together against norovirus Sydney 2012 RdRp.

[2] = CellTitre Blue cell viability (cytotoxicity) assay; format: cell-based; conditions: mouse, RAW264.7 mouse macrophage cells, 0.5–100 µM, read-out: CC50 (half maximal cytotoxic concentration)
Experimental: As mentioned above, the only robust cellular assay available for the evaluation of potential norovirus inhibitors is the closely related MNV assay. […] Consequently, 54 was further assessed to determine the IC50 value against MNV RdRp activity using an in vitro fluorescent assay. […] 54 was then assessed for cytotoxicity against RAW264.7 mouse macrophage cells using a cell viability assay. […] Using the plaque reduction assay, the inhibitory effects of 54 (0.5–50 µM) were examined against MNV plaque formation in cell culture. […] Compound solubility and its cell-membrane permeability properties could be further improved with structure-activity relationship enhancement of the 54 scaffold to facilitate cellular uptake, and therefore to increase antiviral efficacy. Work on this aspect is ongoing, and it will be reported in due course.
MNV-1 (CW1) culture assays were performed as previously described. Replication was examined using plaque assays[58],[64],[65]. Cytotoxicity was examined using a CellTitre Blue (Promega, Madison, WI, USA) viability assay as described previously.

RHDV RdRp = assay: Fluorescent RdRp activity assay, RHDV RdRp; format: biochemical, rabbit haemorrhagic disease virus; conditions: fixed concentration of 100 µM
Source text: The antiviral activity of the four compounds (11, 13, 42a and 54) were examined for inhibition of RNA polymerases from other viruses spanning three genera of the Caliciviridae family, including Norovirus (human norovirus and MNV), Lagovirus (rabbit haemorrhagic disease virus [RHDV]) and Sapovirus (human sapovirus). […] The protein sequence of the examined calicivirus polymerases has an identity range between 30.2–61.4%, and therefore the broad-spectrum activity of these compounds could be attributed to a common, highly-conserved binding pocket across the RdRps, as has been previously reported with broad-spectrum activity of other site-B binding NNIs[16]. […]
(§1) Fluorescent RdRp activity assays were carried out as previously described[14],[62]. Briefly, RdRp activity was quantified by monitoring the formation of double-stranded RNA (dsRNA) from a single stranded homopolymeric template, poly(C) (Sigma Aldrich, St Louis, MO, USA), using the fluorescent dye PicoGreen (Life Technologies, Carlsbad, CA, USA). […] RdRps were incubated for 10 mins at 30 °C in the presence of the test compounds or the compound vehicle DMSO (0.5% vol/vol) before addition into the reaction mixture, which was then allowed to run 15 min at 30 °C then terminated with 10 mM EDTA, followed by PicoGreen staining and dsRNA quantitation. […] Antagonism was calculated using Compusyn software V1.0[59]. […]

Q414A norovirus RdRp = biological target: T1, Q414A norovirus RdRp (Norovirus GII.4 (Norwalk virus, human norovirus), UniProt K4L8Z7, Q1603A); assay: Fluorescent RdRp assay, Q414A mutant RdRp; format: biochemical; conditions: 0.1–100 µM
T1 sequence (K4L8Z7 1190-1699 Q1603A): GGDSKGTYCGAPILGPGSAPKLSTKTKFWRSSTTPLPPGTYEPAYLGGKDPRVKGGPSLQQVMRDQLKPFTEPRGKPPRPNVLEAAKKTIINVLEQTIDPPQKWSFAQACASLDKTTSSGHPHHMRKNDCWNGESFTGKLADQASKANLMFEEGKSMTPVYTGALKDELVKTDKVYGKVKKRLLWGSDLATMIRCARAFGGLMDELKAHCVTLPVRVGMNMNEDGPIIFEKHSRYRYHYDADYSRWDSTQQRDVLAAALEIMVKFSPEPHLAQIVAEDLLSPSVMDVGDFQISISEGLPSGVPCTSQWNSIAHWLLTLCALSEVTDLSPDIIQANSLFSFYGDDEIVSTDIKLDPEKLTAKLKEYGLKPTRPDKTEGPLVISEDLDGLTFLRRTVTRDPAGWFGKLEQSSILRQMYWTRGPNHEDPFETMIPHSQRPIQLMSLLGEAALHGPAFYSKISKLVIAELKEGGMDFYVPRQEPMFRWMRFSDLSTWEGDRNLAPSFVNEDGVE
Source text: Given the evidence of 54 being a site-B binding NNI, residues Q414 and R419 were mutated to alanine. These residues were previously shown by our research group and others to be critical for human norovirus RdRp site-B binding NNIs, and can create resistance to the drug through their mutagenesis[16],[17],[39]. After the mutant RdRps’ transcriptional activity was confirmed in a fluorescent RdRp assay (Q414A: 54%, R419A: 34% of wild-type activity, respectively), dose-response curves for 54 (0.1–100 µM) were produced to compare the IC50 values between the wild-type RdRp and the two mutant RdRps, Q414A and R419A (Fig. 13B). […]
as §1

In the case of `O=C1NN(c2ccccc2)C(=O)/C1=C/c1ccc(-c2ccc(S(=O)(=O)Nc3ccccc3)cc2)o1` [Compound 54], the IC50 [1] is reported as 5.6 µM, the CC50 [2] is reported as 62.8 µM and the “inhibition of RHDV RdRp activity” value (RHDV RdRp) is reported as 99.0%. For the same compound, the IC50 (Q414A norovirus RdRp) was 7.8 µM.
